Measurements reported in US8293732B2, “Antibacterial quinoline derivatives” (Janssen Pharmaceutica N.V., priority 2006, dated 2012).
In brackets after ≈: the same amount, converted by molar mass.

Experiments:
Assay type in all cases: cell-based
[1] = tested on: Staphylococcus aureus (ATCC29213); assay: In-vitro anti-bacterial microtitre plate assay, IC90 determination (STA 1 B29213); conditions: 90% inhibitory concentration for bacterial growth, 37° C., resazurin fluorescence; for IC90 values STA 1 B29213: 24 hours; for IC90: Staphylococcus aureus, ATCC29213, 24 h
Experimental: (§1) The bacteria used in this study were grown overnight in flasks containing 100 ml Mueller-Hinton Broth (Becton Dickinson—cat. no. 275730) in sterile de-ionized water, with shaking, at 37° C. Stocks (0.5 ml/tube) were stored at −70° C. until use. Bacteria titrations were performed in microtiter plates to detect the TCID50, in which the TCID50 represents the dilution that gives rise to bacterial growth in 50% of inoculated cultures.
(§2) In general, an inoculum level of approximately 100 TCID50 was used for susceptibility testing.
(§3) Flat-bottom, sterile 96-well plastic microtiter plates were filled with 180 μl of sterile deionized water, supplemented with 0.25% BSA. Subsequently, stock solutions (7.8× final test concentration) of compounds were added in 45 μl volumes in column 2. Serial five-fold dilutions (45 μl in 180 μl) were made directly in the microtiter plates from column 2 to reach column 11. Untreated control samples with (column 1) and without (column 12) inoculum were included in each microtiter plate. Depending on the bacteria type, approximately 10 to 60 CFU per well of bacteria inoculum (100 TCID50), in a volume of 100 μl in 2.8× Mueller-Hinton broth medium, was added to the rows A to H, except column 12. The same volume of broth medium without inoculum was added to column 12 in row A to H. The cultures were incubated at 37° C. for 24 hours under a normal atmosphere (incubator with open air valve and continuous ventilation). At the end of incubation, one day after inoculation, the bacterial growth was quantitated fluorometrically. Therefore resazurin (0.6 mg/ml) was added in a volume of 20 μl to all wells 3 hours after inoculation, and the plates were re-incubated overnight. A change in colour from blue to pink indicated the growth of bacteria. The fluorescence was read in a computer-controlled fluorometer (Cytofluor Biosearch) at an excitation wavelength of 530 nm and an emission wavelength of 590 nm. The % growth inhibition achieved by the compounds was calculated according to standard methods.
(§4) STA 29213 means Staphylococcus aureus (ATCC29213); SPN 6305 means Streptococcus pneumoniae (ATCC6305); MSM 607 means M. Smegmatis (ATCC607); ATCC means […].

[2] = tested on: Streptococcus pneumoniae (ATCC6305); assay: In-vitro anti-bacterial microtitre plate assay, IC90 determination (SPN 1 6305); conditions: 90% inhibitory concentration for bacterial growth, 37° C., resazurin fluorescence; for IC90 values SPN 1 6305: 24 hours; for IC90: Streptococcus pneumoniae, ATCC6305, 24 h
Experimental: as §1, §2, §3, §4

M. Smegmatis (ATCC607) = assay: In-vitro anti-bacterial activity against strain M. Smegmatis ATCC607; conditions: 90% inhibitory concentration for bacterial growth, 37° C., Alamar Blue fluorescence; for IC90: Mycolicibacterium smegmatis, ATCC607, 48 h, read-out: IC90 values MSM 1 ATCC607; for IC90 values MSM 1 ATCC607: 48 hours
Experimental: Flat-bottom, sterile 96-well plastic microtiter plates were filled with 180 μl of sterile deionized water, supplemented with 0.25% BSA. Subsequently, stock solutions (7.8× final test concentration) of compounds were added in 45 μl volumes to a series of duplicate wells in column 2 so as to allow evaluation of their effects on bacterial growth. Serial five-fold dilutions (45 μl in 180 μl) were made directly in the microtiter plates from column 2 to 11 using a customised robot system (Zymark Corp., Hopkinton, Mass.). Pipette tips were changed after every 3 dilutions to minimize pipetting errors with high hydrophobic compounds. Untreated control samples with (column 1) and without (column 12) inoculum were included in each microtiter plate. Approximately 250 CFU per well of bacteria inoculum, in a volume of 100 μl in 2.8× Mueller-Hinton broth medium, was added to the rows A to H, except column 12. The same volume of broth medium without inoculum was added to column 12 in row A to H. The cultures were incubated at 37° C. for 48 hours in a humidified 5% CO2 atmosphere (incubator with open air valve and continuous ventilation). At the end of incubation, two days after inoculation, the bacterial growth was quantitated fluorometrically. Therefore Alamar Blue (10×) was added to all wells in a volume of 20 μl and plates were incubated for another 2 hours at […]
The fluorescence was read in a computer-controlled fluorometer (Cytofluor, Biosearch) at an excitation wavelength of 530 nm and an emission wavelength of 590 nm (gain 30).
as §4

Row | IC90 values STA 1 B29213 [1] [µg/mL] | IC90 values SPN 1 6305 [2] [µg/mL] | IC90 [1] [µg/mL] | IC90 [2] [µg/mL] | SMILES | IC90 (M. Smegmatis (ATCC607)) [µg/mL] | IC90 values MSM 1 ATCC607 (M. Smegmatis (ATCC607)) [µg/mL]
1 | 9.2 (≈ 15.8 µM) |  |  | 1.8 (≈ 3.09 µM) | COc1nc2ccccc2cc1C(c1cccc(-c2ccncc2)c1)C(O)(CCCCN(C)C)c1ccc2ccccc2c1 (single isomer, unassigned) [Compound 8] | 1.8 (≈ 3.09 µM) | 
2 | 1.8 (≈ 3.09 µM) | 1.8 (≈ 3.09 µM) |  |  | COc1nc2ccccc2cc1C(c1cccc(-c2ccncc2)c1)C(O)(CCCCN(C)C)c1ccc2ccccc2c1 (single isomer, unassigned) [Compound 9] |  | 1.5 (≈ 2.58 µM)
3 |  |  | 1.8 (≈ 3.15 µM) | 2 (≈ 3.5 µM) | COc1nc2ccccc2cc1C(c1ccc(-c2ccoc2)cc1)C(O)(CCCCN(C)C)c1ccc2ccccc2c1 (single isomer, unassigned) [Compound 12] | 1.8 (≈ 3.15 µM) | 
4 | 1.9 (≈ 3.24 µM) | 2.3 (≈ 3.92 µM) |  |  | COc1nc2ccccc2cc1C(c1ccc(-c2cccs2)cc1)C(O)(CCCCN(C)C)c1ccc2ccccc2c1 (single isomer, unassigned) [Compound 15] |  | 
5 | 2.1 (≈ 3.22 µM) | 2.6 (≈ 3.98 µM) |  |  | COc1nc2ccc(Br)cc2cc1C(c1ccc(Cl)cc1)C(O)(CCCCN1CCN(C)CC1)COc1ccccc1 (single isomer, unassigned) [Compound 21] |  | 2.1 (≈ 3.22 µM)
6 | 2.5 (≈ 4.05 µM) | 2.0 (≈ 3.24 µM) |  |  | COc1nc2ccc(Br)cc2cc1C(c1ccccc1)C(O)(CCCCN1CCCCC1)COCc1ccccc1 (single isomer, unassigned) [Compound 25] |  | 2.0 (≈ 3.24 µM)
7 |  |  | 1.97 (≈ 3.16 µM) |  | COc1nc2ccc(Br)cc2cc1C(c1ccccc1)C(O)(CCCCCN(C)C)c1cccc(-c2ccccc2)c1 (single isomer, unassigned) [Compound 35] | 1.76 (≈ 2.82 µM) | 
8 | 1.97 (≈ 3.16 µM) |  |  |  | COc1nc2ccc(Br)cc2cc1C(c1ccccc1)C(O)(CCCCCN(C)C)c1cccc(-c2ccccc2)c1 (single isomer, unassigned) [Compound 36] |  | 1.76 (≈ 2.82 µM)
9 | 8.58 (≈ 15.8 µM) |  |  |  | COc1nc2ccc(Br)cc2cc1C(c1ccoc1)C(O)(CCc1ccc(F)cc1)CCN(C)C (single isomer, unassigned) [Compound 54] |  | 1.92 (≈ 3.55 µM)
10 |  |  | 1.79 (≈ 2.82 µM) |  | COc1nc2ccc(Br)cc2cc1C(c1ccccc1)C(O)(CCCCN(C)C)c1cccc(/C=C/c2ccccc2)c1 (stereo not drawn) [Compound 44] |  | 0.90 (≈ 1.42 µM)
11 | 2.01 (≈ 3.16 µM) |  |  |  | COc1nc2ccc(Br)cc2cc1C(c1ccccc1)C(O)(CCCCN(C)C)c1cccc(/C=C/c2ccccc2)c1 (stereo not drawn) [Compound 47] |  | 2.01 (≈ 3.16 µM)

The remaining lines, values behind:

Row | SMILES | IC90 values STA 1 B29213 [1] [µg/mL] | IC90 values SPN 1 6305 [2] [µg/mL] | IC90 [1] [µg/mL] | IC90 [2] [µg/mL] | IC90 (M. Smegmatis (ATCC607)) [µg/mL] | IC90 values MSM 1 ATCC607 (M. Smegmatis (ATCC607)) [µg/mL]
12 | COc1nc2ccc(Br)cc2cc1C(c1ccc(Cl)cc1)C(O)(CCCCN(C)C)COc1ccccc1 (single isomer, unassigned) [Compound 3] | 9.5 (≈ 15.9 µM) | 11.9 (≈ 19.9 µM) |  |  | 1.7 (≈ 2.84 µM) | 
13 | COc1nc2ccccc2cc1C(c1ccc(-c2cccnc2)cc1)C(O)(CCCCN(C)C)c1ccc2ccccc2c1 (single isomer, unassigned) [Compound 7] |  |  | 1.8 (≈ 3.09 µM) | 1.8 (≈ 3.09 µM) | 1.8 (≈ 3.09 µM) | 
14 | COc1nc2ccccc2cc1C(c1ccc(-c2cccnc2)cc1)C(O)(CCCCN(C)C)c1ccc2ccccc2c1 (single isomer, unassigned) [Compound 7b] | 1.8 (≈ 3.09 µM) | 1.85 (≈ 3.18 µM) |  |  |  | 1.5 (≈ 2.58 µM)
15 | COc1nc2ccccc2cc1C(c1ccc(-c2cnn(C)c2)cc1)C(O)(CCCCN(C)C)c1ccc2ccccc2c1 (single isomer, unassigned) [Compound 11] | 1.9 (≈ 3.25 µM) | 1.9 (≈ 3.25 µM) |  |  |  | 1.9 (≈ 3.25 µM)
16 | COc1nc2ccccc2cc1C(c1ccc(-c2cccs2)cc1)C(O)(CCCCN(C)C)c1ccc2ccccc2c1 (single isomer, unassigned) [Compound 14] |  |  | 1.9 (≈ 3.24 µM) | 2.3 (≈ 3.92 µM) | 1.9 (≈ 3.24 µM) | 
17 | COc1nc2ccc(Br)cc2cc1C(c1ccccc1)C(O)(CCCCN1CCN(C)CC1)COc1ccccc1 (single isomer, unassigned) [Compound 19] | 4.4 (≈ 7.11 µM) | 2.5 (≈ 4.04 µM) |  |  |  | 2.0 (≈ 3.23 µM)
18 | COc1nc2ccc(Br)cc2cc1C(c1ccccc1)C(O)(CCCCN1CCN(C)CC1)COc1ccc(C)cc1 (single isomer, unassigned) [Compound 23] | 2.0 (≈ 3.16 µM) | 2.0 (≈ 3.16 µM) |  |  |  | 2.0 (≈ 3.16 µM)
19 | COc1nc2ccc(Br)cc2cc1C(c1ccccc1)C(O)(CCCCN1CCCCC1)COCc1ccccc1 (single isomer, unassigned) [Compound 26] |  |  | 2 (≈ 3.24 µM) | 2 (≈ 3.24 µM) | 2 (≈ 3.24 µM) | 
20 | COc1nc2ccc(Br)cc2cc1C(c1ccccc1)C(O)(CCCCN1CCN(C)CC1)COCc1ccccc1 (single isomer, unassigned) [Compound 27] | 4.5 (≈ 7.11 µM) | 2.2 (≈ 3.48 µM) |  |  |  | 2.0 (≈ 3.16 µM)
21 | COc1nc2ccc(Br)cc2cc1C(c1ccccc1)C(O)(CCCCCN(C)C)c1cccc(/C=C/c2ccccc2)c1 (single isomer, unassigned) [Compound 37] |  |  | 2.05 (≈ 3.16 µM) |  | 1.63 (≈ 2.51 µM) | 
22 | COc1nc2ccc(Br)cc2cc1C(c1ccccc1)C(O)(CCCCN(C)C)c1cccc(-c2ccc(C)cc2)c1 (single isomer, unassigned) [Compound 42] | 2.21 (≈ 3.54 µM) |  |  |  |  | 0.79 (≈ 1.27 µM)
23 | COc1nc2ccccc2cc1C(c1ccc(-c2ccncc2)cc1)C(O)(CCCCN(C)C)c1ccc2ccccc2c1 (single isomer, unassigned) [Compound 43] | 4.60 (≈ 7.91 µM) |  |  |  |  | 0.37 (≈ 0.636 µM)
24 | COc1nc2ccccc2cc1C(c1ccc(-c2cnc3ccccc3c2)cc1)C(O)(CCCCN(C)C)c1ccc2ccccc2c1 (single isomer, unassigned) [Compound 49] | 2.00 (≈ 3.17 µM) |  |  |  |  | 2.00 (≈ 3.17 µM)
25 | COc1nc2ccccc2cc1C(c1ccc(-c2cnc3ccccc3c2)cc1)C(O)(CCCCN(C)C)c1ccc2ccccc2c1 (single isomer, unassigned) [Compound 50] | 25.15 (≈ 39.8 µM) |  |  |  |  | 22.42 (≈ 35.5 µM)
26 | COc1nc2ccc(Br)cc2cc1C(c1ccoc1)C(O)(CCN(C)C)c1ccccc1 (single isomer, unassigned) [Compound 51] |  |  | 39.4 (≈ 79.4 µM) |  |  | 1.57 (≈ 3.17 µM)
27 | COc1nc2ccc(Br)cc2cc1C(c1ccoc1)C(O)(CCN(C)C)c1ccccc1 (single isomer, unassigned) [Compound 52] | 49.54 (≈ 100 µM) |  |  |  |  | 0.06 (≈ 0.121 µM)
28 | COc1nc2ccc(Br)cc2cc1C(c1ccccc1)C(O)(CCCCN(C)C)c1cccc(/C=C/c2ccccc2)c1 (stereo not drawn) [Compound 45] | 2.01 (≈ 3.16 µM) |  |  |  |  | 2.01 (≈ 3.16 µM)
29 | COc1nc2ccc(Br)cc2cc1C(c1ccccc1)C(O)(CCCCN(C)C)c1cccc(/C=C/c2ccccc2)c1 (stereo not drawn) [Compound 46] | 2.01 (≈ 3.16 µM) |  |  |  |  | 2.01 (≈ 3.16 µM)
